# Reference: PubChem BioAssay (NCI)
#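 All cell lines were grown in 96-well plates and treated with compound for 48 hours. At the GI50, growth is halved. TGI: total growth inhibition.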
# What was measured:
# Test in all cases: inhibition of tumour cell growth, NCI panel, 48 h
# SK-MEL-28 melanoma = system: SK-MEL-28 melanoma
# ACHN renal = system: ACHN renal
# MALME-3M melanoma = system: MALME-3M melanoma
# RPMI-8226 leukemia = system: RPMI-8226 leukemia
# IGROV1 ovarian = system: IGROV1 ovarian
# U251 CNS = system: U251 CNS
# NCI-H23 lung = system: NCI-H23 lung
# SW-620 colon = system: SW-620 colon
# KM12 colon = system: KM12 colon
# MDA-MB-231 breast = system: MDA-MB-231 breast
Structure (SMILES),GI50 (SK-MEL-28 melanoma) [µM],TGI (SK-MEL-28 melanoma) [µM],GI50 (ACHN renal) [µM],TGI (ACHN renal) [µM],GI50 (MALME-3M melanoma) [µM],TGI (MALME-3M melanoma) [µM],GI50 (RPMI-8226 leukemia) [µM],TGI (RPMI-8226 leukemia) [µM],GI50 (IGROV1 ovarian) [µM],TGI (IGROV1 ovarian) [µM],GI50 (U251 CNS) [µM],TGI (U251 CNS) [µM],GI50 (NCI-H23 lung) [µM],TGI (NCI-H23 lung) [µM],GI50 (SW-620 colon) [µM],TGI (SW-620 colon) [µM],GI50 (KM12 colon) [µM],TGI (KM12 colon) [µM],GI50 (MDA-MB-231 breast) [µM],TGI (MDA-MB-231 breast) [µM]
N.N.NC(CS)C(=O)[O-].NC(CS)C(=O)[O-].[Pt+4] (configuration not stated),> 50,> 50,> 50,> 50,> 50,> 50,> 50,> 50,> 50,> 50,> 50,> 50,> 50,> 50,> 50,> 50,> 50,> 50,,
CC1=Cc2cc3[n-]c(cc4nc(cc5[n-]c(cc1n2)cc5C)C(C)=C4CCC(=O)O)c(CCC(=O)O)c3C.[Pd+2],3.06,12.7,6.31,16.6,10.5,38.5,17.3,36.9,14.2,25.6,2.56,8.24,9.55,25.2,15.2,> 63.4,27,53.3,,
COC(=O)c1c(CC#N)cccc1CC#N,,,,> 100,,> 100,,> 100,,> 100,,> 100,,> 100,,> 100,,> 100,,
O=C(Nc1ccc(Cl)cc1)c1cc2ccccc2cc1O,7.62,> 100,3.34,> 100,1.67,95.6,,,2.19,> 100,2.54,29.5,2,> 100,3.62,> 100,2.81,> 100,5.83,> 100
CC(C(=O)Oc1ccc2ccccc2c1-c1c(O)ccc2ccccc12)c1ccccc1 (configuration not stated),,29.2,,26.6,,34.8,,57.6,,34.9,,28.7,,30.3,,31.8,,26.1,,
Cc1c2cc[nH]c(=O)c2cc2c(=O)c3cnccc3[nH]c12,,> 100,,> 100,,> 100,,> 100,,> 100,,> 100,,> 100,,> 100,,> 100,,
COC(=O)C(Nc1ccc(OC)cc1)c1ccccc1 (configuration not stated),,> 100,,> 100,,,,> 100,,> 100,,,,> 100,,> 100,,> 100,,
CN(c1ccccc1)C(c1ccccc1)C(O)c1ccccc1 (configuration not stated),,41.7,,54.4,,31.4,,49.3,,45.4,,33.2,,40.4,,33.2,,34.4,,
O=S1(=O)C[C@@H](O)[C@H](O)CS1,,> 100,,> 100,,> 100,,> 100,,> 100,,> 100,,> 100,,> 100,,> 100,,
CCOC(=O)C(C)c1cc(C2(C)OCCO2)c(C)o1 (configuration not stated),,,,> 100,,> 100,,> 100,,> 100,,> 100,,> 100,,> 100,,> 100,,
CC(=O)OCC1OC(n2c(=O)n(-c3ccccc3)c(=O)c3ccccc32)C(OC(C)=O)C(OC(C)=O)C1OC(C)=O (configuration not stated),,> 100,,> 100,,> 100,,> 100,,> 100,,> 100,,> 100,,> 100,,> 100,,
COc1ccc(-c2nc(-c3ccccc3)c(-c3ccccc3)n2C2CC2)cc1OC1CCCC1,> 165,> 165,58,> 165,,,48.8,> 165,77.8,> 165,30.2,> 165,> 165,> 165,53.7,> 165,50.9,> 165,> 165,> 165
O=c1cc(-c2ccccc2)nc2n1CCN2Cc1ccccc1,60,> 100,25,76.7,,,15.6,39.9,21.2,53.2,30.5,> 100,,,39.1,> 100,35.7,> 100,32.2,> 100
Cc1cc(C)nc(Nc2nc3ccc([N+](=O)[O-])cc3[nH]2)n1,,> 100,,> 100,,> 100,,> 100,,> 100,,> 100,,> 100,,> 100,,> 100,,
Nc1c(-c2nc3ccccc3[nH]2)sc(=S)n1-c1ccccc1,,> 100,,> 100,,> 100,,> 100,,> 100,,> 100,,> 100,,> 100,,> 100,,
CN(C)c1ccc2c3c(c(=O)oc2c1)CCC3,,> 100,,> 100,,,,> 100,,> 100,,> 100,,> 100,,> 100,,> 100,,> 100
O=C(O)C12C3CCCC1C2CC3 (configuration not stated),,> 100,,> 100,,> 100,,> 100,,> 100,,> 100,,> 100,,,,> 100,,
O=C1C(=O)N(c2ccc(Cl)c(Cl)c2)C(=O)C(=O)C1c1nc2ccccc2o1,,> 100,,> 100,,> 100,,66.5,,> 100,,85.6,,> 100,,> 100,,> 100,,
O=C1OC2(c3ccccc3Oc3ccccc32)c2ccccc21,,> 100,,> 100,,> 100,,> 100,,> 100,,> 100,,> 100,,> 100,,> 100,,
COC(=O)C1=C(O)C(O)=C(C(=O)OC)C1,,> 100,,> 100,,> 100,,> 100,,> 100,,> 100,,> 100,,> 100,,> 100,,
c1ccc(N=C2c3ccccc3C3=NCCCN32)cc1,,> 100,,> 100,,> 100,,> 100,,> 100,,> 100,,> 100,,> 100,,> 100,,
